The target of the experiment is T1, androgen receptor (AR) (Homo sapiens, UniProt P10275).
T1 construct: AR from LNCaP cytosol (LBD site)
T1 sequence (P10275 1-920): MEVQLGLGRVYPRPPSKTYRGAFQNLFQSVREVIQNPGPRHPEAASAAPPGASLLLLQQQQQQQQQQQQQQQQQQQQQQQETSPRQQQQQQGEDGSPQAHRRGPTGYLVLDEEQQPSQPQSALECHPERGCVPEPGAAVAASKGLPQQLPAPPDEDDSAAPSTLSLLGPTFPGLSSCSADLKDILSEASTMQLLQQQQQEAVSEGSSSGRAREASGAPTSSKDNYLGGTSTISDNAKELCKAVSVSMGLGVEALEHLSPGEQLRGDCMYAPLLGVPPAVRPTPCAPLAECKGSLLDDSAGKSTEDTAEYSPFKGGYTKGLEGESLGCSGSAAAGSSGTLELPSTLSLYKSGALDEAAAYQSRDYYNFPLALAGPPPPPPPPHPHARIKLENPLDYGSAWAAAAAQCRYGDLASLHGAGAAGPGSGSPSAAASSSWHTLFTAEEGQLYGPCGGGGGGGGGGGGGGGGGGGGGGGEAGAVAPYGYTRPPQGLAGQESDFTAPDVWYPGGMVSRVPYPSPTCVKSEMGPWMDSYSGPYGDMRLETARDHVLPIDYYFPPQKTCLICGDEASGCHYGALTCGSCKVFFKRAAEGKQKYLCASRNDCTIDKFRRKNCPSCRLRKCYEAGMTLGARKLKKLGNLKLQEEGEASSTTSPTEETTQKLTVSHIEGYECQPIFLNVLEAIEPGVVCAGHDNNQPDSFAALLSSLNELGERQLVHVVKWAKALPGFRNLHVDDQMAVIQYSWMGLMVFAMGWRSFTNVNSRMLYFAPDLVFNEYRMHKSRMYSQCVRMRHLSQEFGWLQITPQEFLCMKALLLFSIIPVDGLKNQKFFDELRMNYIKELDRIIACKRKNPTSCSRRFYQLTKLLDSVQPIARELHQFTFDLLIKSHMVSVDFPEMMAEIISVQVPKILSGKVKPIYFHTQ
Kind of experiment: [3H]DHT competitive radioligand binding; also BLI and FP on AR LBD, and SPR (KD […]) and BLI on AR AF1 ([…] aa).

What is called IC50 is the point on the concentration scale where inhibition reaches its midpoint. A high value points to weaker potency. As to `Cc1noc(C)c1COc1ccc(C(=O)Nc2nc(-c3cccs3)cs2)cc1` [Z15, 4-[(3,5-Dimethyl-4-isoxazolyl)methoxy]-N-4-[(2-thienyl)-2-thiazole]-benzamide], the concentration for half-maximal inhibition (IC50) worked out at 63.3 nM.

Source of the values: paper PMC9901937, “Selective androgen receptor degrader (SARD) to overcome antiandrogen resistance in castration-resistant prostate cancer” (eLife, 2023).
